In PubChem BioAssay AID256 (DTP/NCI, 2004):
“And” between values parts separate entries of the source, which are not always exact repeats. Identical values can stand only once. Inconclusive results and toxic doses are left out. Rule for the calls: active = survival T/C of 150% or more; inactive = T/C below 125% in these data.

Tested on: CD2F1 mice, L1210 leukemia ip, survival T/C
Assay: NCI In Vivo Anticancer Drug Screen. Data for tumor model L1210 Leukemia (intraperitoneal) in CD2F1 (CDF1) mice
Conditions: higher = longer survival
Outline: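 Each value reflects a quotient of treated over vehicle control outcomes in mice with a transplanted tumor.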

[1] = endpoint: mean survival time, dose: 25.0 mg/kg/injection, schedule: Q04DX003 (ip), vehicle: Klucel (hydroxypropylcellulose) (HPC)
[2] = endpoint: mean survival time, dose: 50.0 mg/kg/injection, schedule: Q04DX003 (ip), vehicle: Klucel (hydroxypropylcellulose) (HPC)
[3] = endpoint: mean survival time, dose: 100.0 mg/kg/injection, schedule: Q04DX003 (ip), vehicle: Klucel (hydroxypropylcellulose) (HPC)
[4] = endpoint: mean survival time, dose: 200.0 mg/kg/injection, schedule: Q04DX003 (ip), vehicle: Klucel (hydroxypropylcellulose) (HPC)
[5] = endpoint: mean survival time, dose: 50.0 mg/kg/injection, schedule: Q01DX009 (ip), vehicle: Klucel (hydroxypropylcellulose) (HPC)
[6] = endpoint: mean survival time, dose: 100.0 mg/kg/injection, schedule: Q01DX009 (ip), vehicle: Klucel (hydroxypropylcellulose) (HPC)
[7] = endpoint: mean survival time, dose: 50.0 mg/kg/injection, schedule: Q01DX009 (ip), vehicle: saline with Tween-80
[8] = endpoint: mean survival time, dose: 100.0 mg/kg/injection, schedule: Q01DX009 (ip), vehicle: saline with Tween-80
[9] = endpoint: mean survival time, dose: 100.0 mg/kg/injection, schedule: Q04DX003 (ip), vehicle: saline with Tween-80
[10] = endpoint: mean survival time, dose: 200.0 mg/kg/injection, schedule: Q04DX003 (ip), vehicle: saline with Tween-80
[11] = endpoint: mean survival time, dose: 400.0 mg/kg/injection, schedule: Q04DX003 (ip), vehicle: saline with Tween-80
[12] = endpoint: mean survival time, dose: 25.0 mg/kg/injection, schedule: Q04DX002 (ip), vehicle: saline with Tween-80
[13] = endpoint: mean survival time, dose: 50.0 mg/kg/injection, schedule: Q04DX002 (ip), vehicle: saline with Tween-80
[14] = endpoint: mean survival time, dose: 100.0 mg/kg/injection, schedule: Q04DX002 (ip), vehicle: saline with Tween-80
[15] = endpoint: mean survival time, dose: 12.5 mg/kg/injection, schedule: Q04DX003 (ip), vehicle: Klucel (hydroxypropylcellulose) (HPC)
[16] = endpoint: mean survival time, dose: 100.0 mg/kg/injection, schedule: Q01DX001 (ip), vehicle: saline with Tween-80
[17] = endpoint: mean survival time, dose: 200.0 mg/kg/injection, schedule: Q01DX001 (ip), vehicle: saline with Tween-80
[18] = endpoint: mean survival time, dose: 400.0 mg/kg/injection, schedule: Q01DX001 (ip), vehicle: saline with Tween-80
[19] = endpoint: mean survival time, dose: 200.0 mg/kg/injection, schedule: Q04DX002 (ip), vehicle: saline with Tween-80

Measured: T/C

CC(C)NC(=O)CCCN(C(=O)OCc1ccccc1)N(C)C(=O)OCc1ccccc1
inactive: [1] 94 % of control | [2] 91 % of control | [3] 103 % of control | [4] 91 % of control | endpoint: mean survival time, dose: 400.0 mg/kg/injection, schedule: Q04DX003 (ip), vehicle: Klucel (hydroxypropylcellulose) (HPC) 95 % of control

O=C(CCl)Nc1ccc(SSc2ccc(NC(=O)CCl)cc2)cc1
inactive: endpoint: mean survival time, dose: 25.0 mg/kg/injection, schedule: Q01DX009 (ip), vehicle: Klucel (hydroxypropylcellulose) (HPC) 95 % of control | [5] 96 % of control | [6] 93 % of control

CCCCCC(O)CCCC (stereo not drawn)
inactive: [7] 91 % of control | [8] 100 % of control | endpoint: mean survival time, dose: 200.0 mg/kg/injection, schedule: Q01DX009 (ip), vehicle: saline with Tween-80 106 % of control

CS(=O)(=O)c1cc(C(F)(F)F)cc([N+](=O)[O-])c1Cl
inactive: [7] 103 % of control | [8] 103 % of control | [9] 97 % of control | [10] 94 % of control

OCCNC(=S)SCc1ccccc1
inactive: [9] 94 % of control | [10] 100 % of control | [11] 98 % of control

CSCCCCCCSC
inactive: [9] 95 % of control | [10] 101 % of control

COc1c(NC(=O)Nc2ccccc2Cl)cccc1[N+](=O)[O-]
inactive: [12] 87 % of control | [13] 90 % of control | [14] 90 % of control

CC(=O)C1CCC2C3CC=C4CC(n5ccc(=O)[nH]c5=O)CCC4(C)C3CCC12C (stereo not drawn)
inactive: [15] 97 % of control | [1] 101 % of control | [2] 97 % of control | [3] 97 % of control | [4] 92 % of control

CCCCNC(=O)Nc1ccc(Cl)cc1
inactive: [16] 88 % of control | [17] 86 % of control | [18] 88 % of control

Cc1c[nH]c(=O)n(CC(=O)C2CCC3C4CCC5=CC(=O)CCC5(C)C4CCC23C)c1=O (stereo not drawn)
inactive: [15] 95 % of control | [1] 95 % of control | [2] 97 % of control | [3] 98 % of control | [4] 98 % of control

O=S(=O)(O)O.[NH-]CC1(C[NH-])CCCCC1.[Pt+2]
inactive: endpoint: mean survival time, dose: 25.0 mg/kg/injection, schedule: Q04DX003 (ip), vehicle: saline 96 % of control | endpoint: median survival time, dose: 15.98 mg/kg/injection, schedule: Q04DX003 (ip), vehicle: dextrose 108 % of control | endpoint: median survival time, dose: 18.0 mg/kg/injection, schedule: Q04DX003 (ip), vehicle: dextrose 93 % of control | endpoint: median survival time, dose: 24.0 mg/kg/injection, schedule: Q04DX003 (ip), vehicle: dextrose 105 % of control

O=c1[nH]c(=O)n(C2CC(O)C(CO)O2)cc1/C=N/O (stereo not drawn)
inactive: endpoint: mean survival time, dose: 12.5 mg/kg/injection, schedule: Q01DX005 (ip), vehicle: distilled water + Tween-80 101 % of control | endpoint: mean survival time, dose: 25.0 mg/kg/injection, schedule: Q01DX005 (ip), vehicle: distilled water + Tween-80 103 % of control | endpoint: mean survival time, dose: 50.0 mg/kg/injection, schedule: Q01DX005 (ip), vehicle: distilled water + Tween-80 101 % of control | endpoint: mean survival time, dose: 100.0 mg/kg/injection, schedule: Q01DX005 (ip), vehicle: distilled water + Tween-80 98 % of control | endpoint: mean survival time, dose: 200.0 mg/kg/injection, schedule: Q01DX005 (ip), vehicle: distilled water + Tween-80 101 % of control

CN(C)CCCN=Cc1ccccc1O.CN(C)CCCN=Cc1ccccc1O.[Ni+2]
inactive: endpoint: mean survival time, dose: 6.25 mg/kg/injection, schedule: Q01DX009 (ip), vehicle: saline with Tween-80 100 % of control | endpoint: mean survival time, dose: 12.5 mg/kg/injection, schedule: Q01DX009 (ip), vehicle: saline with Tween-80 101 % of control | endpoint: mean survival time, dose: 25.0 mg/kg/injection, schedule: Q01DX009 (ip), vehicle: saline with Tween-80 89 % of control

CN(CCC#N)C(=O)Nc1ccccc1
inactive: endpoint: mean survival time, dose: 100.0 mg/kg/injection, schedule: Q04DX003 (ip), vehicle: saline + alcohol 93 % of control | endpoint: mean survival time, dose: 200.0 mg/kg/injection, schedule: Q04DX003 (ip), vehicle: saline + alcohol 98 % of control | endpoint: mean survival time, dose: 400.0 mg/kg/injection, schedule: Q04DX003 (ip), vehicle: saline + alcohol 95 % of control

COc1cc(-c2ccc(N=Nc3c(O)ccc4ccccc34)c(OC)c2)ccc1N=Nc1ccc2c(S(=O)(=O)O)cc(S(=O)(=O)O)c(N)c2c1O
inactive: endpoint: mean survival time, dose: 50.0 mg/kg/injection, schedule: Q01DX001 (ip), vehicle: saline 91 % of control | endpoint: mean survival time, dose: 100.0 mg/kg/injection, schedule: Q01DX001 (ip), vehicle: saline 94 % of control | endpoint: mean survival time, dose: 100.0 mg/kg/injection, schedule: Q04DX003 (ip), vehicle: saline 94 % of control | endpoint: mean survival time, dose: 200.0 mg/kg/injection, schedule: Q01DX001 (ip), vehicle: saline 88 % of control | endpoint: mean survival time, dose: 200.0 mg/kg/injection, schedule: Q04DX003 (ip), vehicle: saline 95 % of control | endpoint: mean survival time, dose: 400.0 mg/kg/injection, schedule: Q01DX001 (ip), vehicle: saline 94 % of control

O=C(O)c1ccc(Cl)cc1Nc1ccc(O)cc1
inactive: [12] 96 % of control | [13] 116 % of control | [14] 101 % of control and 102 % of control

Cc1ccc2c(c1)-c1[nH]c3ccccc3c1CS2
inactive: [5] 109 % of control | [6] 107 % of control | endpoint: mean survival time, dose: 200.0 mg/kg/injection, schedule: Q01DX009 (ip), vehicle: Klucel (hydroxypropylcellulose) (HPC) 107 % of control

C1CCCCCC2=C(CCCC1)CCCO2
inactive: endpoint: mean survival time, dose: 6.25 mg/kg/injection, schedule: Q04DX003 (ip), vehicle: saline with Tween-80 91 % of control | endpoint: mean survival time, dose: 12.5 mg/kg/injection, schedule: Q04DX003 (ip), vehicle: saline with Tween-80 91 % of control | endpoint: mean survival time, dose: 25.0 mg/kg/injection, schedule: Q04DX003 (ip), vehicle: saline with Tween-80 86 % of control | endpoint: mean survival time, dose: 50.0 mg/kg/injection, schedule: Q04DX003 (ip), vehicle: saline with Tween-80 89 % of control | [9] 94 % of control | [10] 94 % of control

NC(=O)C1C=CN(Cc2ccccc2)C=C1
inactive: endpoint: median survival time, dose: 30.0 mg/kg/injection, schedule: Q01DX005 (ip), vehicle: saline with Tween-80 100 % of control | endpoint: median survival time, dose: 60.0 mg/kg/injection, schedule: Q01DX005 (ip), vehicle: saline with Tween-80 107 % of control | endpoint: median survival time, dose: 120.0 mg/kg/injection, schedule: Q01DX005 (ip), vehicle: saline with Tween-80 111 % of control

CCCCC(NCCNC(CCCC)C(=O)O)C(=O)O (stereo not drawn)
inactive: [9] 102 % of control | [10] 91 % of control | [11] 107 % of control

OC1(C2(O)c3ccccc3Oc3ccccc32)c2ccccc2Oc2ccccc21
inactive: endpoint: mean survival time, dose: 100.0 mg/kg/injection, schedule: Q01DX009 (ip), vehicle: saline 99 % of control | endpoint: mean survival time, dose: 200.0 mg/kg/injection, schedule: Q01DX009 (ip), vehicle: saline 97 % of control

C[C@]12CCCC[C@@H]1CC[C@@H]1[C@@H]2CC[C@]2(C)C(=O)CC[C@@H]12
inactive: [9] 92 % of control | [10] 91 % of control | [11] 89 % of control

CCCCC1(C(=O)OCC)SCCCS1
inactive: [13] 94 % of control | [14] 105 % of control | [19] 97 % of control

CC(CCOc1ccc(Cl)cc1Cl)C(=O)O (stereo not drawn)
inactive: [14] 104 % of control | [19] 86 % of control

ClC1CC2C=CC1C2 (stereo not drawn)
inactive: [16] 103 % of control | [17] 100 % of control | [18] 102 % of control
